Here are results for 12 compounds from ChEMBL document CHEMBL1201862, “PubChem BioAssay data set” (2004).

Among the test systems are BT-549; CCRF-CEM; HCT-116; HL-60; HOP-92; IGROV-1; MDA-MB-435; Malme-3M; NCI-H23; OVCAR-5; OVCAR-8; RPMI-8226; SF-539; SK-MEL-28; SNB-75; UACC-62; UO-31; DMS-114; KM-20L2.
Holding throughout (assay): NCI anticancer screen, dose series, 48 h

The structures appear in SMILES notation.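 Following 48 hours of exposure in 96-well plates, responses at five concentrations were used to interpolate endpoints linearly. The concentration for 50% growth inhibition is given as GI50.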 The source made the active and inactive calls. Rule as the data show it: active = GI50 up to about 1.1 µM and inactive = higher. Where a SMILES comes first, the peptide text is derived from it. [ ]: non-standard residue; d: D form. The star is where a group is joined. Phe(4-NO2) = N[CH](Cc1ccc([N+](=O)[O-])cc1)C(=O)O; Boc = CC(C)(C)OC(=O)*; OtBu = CC(C)(C)O*

As to `OCCCNCc1ccccn1`, the GI50 in the test with BT-549 is > 100 µM (inactive); with CCRF-CEM it was > 100 µM (inactive); in the test with HCT-116 it was > 100 µM (inactive); in the test on HL-60 it was 68.1 µM (inactive); in the test on HOP-92, > 100 µM (inactive); with IGROV-1, > 100 µM (inactive). Moreover, the GI50 with MDA-MB-435, in the test with Malme-3M, in the test with NCI-H23, in the test on OVCAR-5, in the test on OVCAR-8 and in the test with RPMI-8226 was > 100 µM (inactive) throughout. In addition, the GI50 with SF-539, with SK-MEL-28, in the test with SNB-75, in the test on UACC-62 and in the test on UO-31 was > 100 µM (inactive) each time.

As to `O=[N+]([O-])c1c(/C=N/Nc2ccccc2)oc(-c2ccc3c(c2)OCO3)c1-c1ccc2c(c1)OCO2`, the GI50 in the test with DMS-114 is 5.02 µM (inactive); with HCT-116, 8.47 µM (inactive); in the test with HL-60, 4.57 µM (inactive); in the test on HOP-92 it was 19.8 µM (inactive); in the test with IGROV-1, 6.14 µM (inactive); in the test with KM-20L2, 2.24 µM (inactive). Further, the GI50 in the test on Malme-3M is 16.4 µM (inactive); in the test with NCI-H23, 51.2 µM (inactive); in the test with OVCAR-5, 5.79 µM (inactive); in the test on OVCAR-8 it was 5.56 µM (inactive); in the test on RPMI-8226, 5.78 µM (inactive); in the test on SF-539 it was 3.16 µM (inactive). The figures for the GI50 with SK-MEL-28, in the test on SNB-75 and in the test with UACC-62 were 23.4 µM (inactive), 23.4 µM (inactive) and 3.19 µM (inactive), respectively.

`O=c1c2cc(S(=O)(=O)Nc3ccccc3Cl)ccc2ncn1NS(=O)(=O)c1ccc(Br)cc1`: the GI50 in the test on BT-549, in the test on CCRF-CEM, in the test on HCT-116, with HL-60, in the test on HOP-92 and with IGROV-1 was > 37.5 µM (inactive) in each case. Besides, the GI50 in the test on MDA-MB-435, in the test with Malme-3M, in the test on NCI-H23, in the test on OVCAR-5, in the test with OVCAR-8 and with RPMI-8226 was > 37.5 µM (inactive) throughout. In addition, the GI50 in the test with SF-539, in the test with SK-MEL-28, with SNB-75, in the test on UACC-62 and in the test on UO-31 was > 37.5 µM (inactive) in each case.

Turning to `COc1cccc(C2CC(C)(N3CCCC3)Oc3cc4c(cc32)OCO4)c1O` (stereo not drawn), the GI50 in the test on BT-549 was 16.9 µM (inactive); in the test on CCRF-CEM it was 15.2 µM (inactive); with HCT-116, 13.2 µM (inactive); in the test with HL-60, 15.4 µM (inactive); with HOP-92 it was 31.3 µM (inactive); in the test with IGROV-1 it was 26.2 µM (inactive). Besides, the GI50 in the test on MDA-MB-435 is 4.39 µM (inactive); with Malme-3M, 24.8 µM (inactive); with NCI-H23 it was 27.4 µM (inactive); with OVCAR-5, 29.7 µM (inactive); in the test with OVCAR-8, 30.2 µM (inactive); in the test on RPMI-8226 it was 21.3 µM (inactive). The GI50 is 19.4 µM (inactive) in the test with SF-539; 22.5 µM (inactive) with SK-MEL-28; 15.5 µM (inactive) in the test on SNB-75; 22.1 µM (inactive) in the test on UACC-62; 32.5 µM (inactive) in the test on UO-31.

Turning to `CC[C@@H]1C[C@@H](O)[C@@H]2[C@H](O)[C@H](O)CN2C1`, the GI50 with BT-549, in the test on CCRF-CEM, in the test with HCT-116, with HL-60, with HOP-92 and in the test on IGROV-1 was > 100 µM (inactive) throughout. For the same compound, the GI50 with MDA-MB-435, in the test with Malme-3M, in the test on NCI-H23, with OVCAR-5, in the test with OVCAR-8 and in the test with RPMI-8226 was > 100 µM (inactive) in each case. The GI50 in the test on SF-539 is > 100 µM (inactive); with SK-MEL-28 it was > 100 µM (inactive); in the test on SNB-75 it was 22.3 µM (inactive); in the test with UACC-62 it was > 100 µM (inactive); in the test on UO-31, > 100 µM (inactive).

For `O=C(/C=C1\Nc2ccccc2C(=O)N1c1ccc(Cl)cc1)c1ccncc1`, the GI50 with CCRF-CEM, in the test on DMS-114, in the test on HCT-116, with HL-60, with HOP-92 and with KM-20L2 was > 100 µM (inactive) in each case. Further, the GI50 was 60.1 µM (inactive) with Malme-3M; > 100 µM (inactive) with NCI-H23; > 100 µM (inactive) in the test on OVCAR-5; > 100 µM (inactive) in the test on OVCAR-8; > 100 µM (inactive) in the test with RPMI-8226; > 100 µM (inactive) with SK-MEL-28. In addition, the GI50 is 20.7 µM (inactive) in the test with SNB-75, > 100 µM (inactive) with UACC-62 and > 100 µM (inactive) in the test with UO-31.

With `COc1ccc(/C=N/N=C(\N)NO)c(O)c1`, the GI50 in the test on BT-549 was > 10 µM (inactive); with CCRF-CEM, > 10 µM (inactive); with HCT-116, 3.53 µM (inactive); in the test with HL-60, 4.39 µM (inactive); in the test on HOP-92, > 10 µM (inactive); in the test with IGROV-1, 8.77 µM (inactive). The GI50 in the test with MDA-MB-435 is 2.09 µM (inactive); in the test on Malme-3M, 9.75 µM (inactive); with NCI-H23, > 10 µM (inactive); in the test on OVCAR-5, > 10 µM (inactive); in the test on OVCAR-8, > 10 µM (inactive); with RPMI-8226 it was > 10 µM (inactive). Also, the GI50 is > 10 µM (inactive) in the test with SF-539; > 10 µM (inactive) in the test on SK-MEL-28; 0.0678 µM (active) with SNB-75; 4.53 µM (inactive) in the test on UACC-62; > 10 µM (inactive) with UO-31.

As to `CC(=O)OCC1OC(N2C(=O)CC(N)=Nc3ccccc32)C(OC(C)=O)C(OC(C)=O)C1OC(C)=O` (stereo not drawn), the GI50 with BT-549 is 66.2 µM (inactive); with CCRF-CEM, > 100 µM (inactive); in the test with HCT-116 it was 81.8 µM (inactive); in the test with HL-60 it was 67.3 µM (inactive); in the test on HOP-92 it was > 100 µM (inactive); with IGROV-1 it was 45.1 µM (inactive). In addition, the GI50 is 30.6 µM (inactive) in the test on MDA-MB-435; 28.9 µM (inactive) with Malme-3M; 43.2 µM (inactive) in the test on NCI-H23; > 100 µM (inactive) in the test with OVCAR-5; 32.4 µM (inactive) with OVCAR-8; 14.4 µM (inactive) with RPMI-8226. For the same compound, the GI50 in the test on SF-539 was 23.2 µM (inactive); in the test on SK-MEL-28, 38.4 µM (inactive); in the test with SNB-75 it was 29.8 µM (inactive); in the test on UACC-62, 34.6 µM (inactive); in the test with UO-31, > 100 µM (inactive).

Regarding `CC(C)/C(Cl)=N/OC(=O)Nc1ccc(Br)cc1`, the GI50 was 4.29 µM (inactive) in the test on BT-549; 1.36 µM (inactive) with CCRF-CEM; 2.9 µM (inactive) in the test on HCT-116; 2.58 µM (inactive) in the test with HL-60; 1.77 µM (inactive) in the test with HOP-92; 13 µM (inactive) in the test with IGROV-1. For the same compound, the GI50 was 11 µM (inactive) with MDA-MB-435; 1.69 µM (inactive) in the test on Malme-3M; 13.3 µM (inactive) with NCI-H23; 14.6 µM (inactive) with OVCAR-5; 14.6 µM (inactive) with OVCAR-8; 1.75 µM (inactive) in the test with RPMI-8226. The GI50 in the test on SF-539 was 13.2 µM (inactive); with SK-MEL-28, 3.76 µM (inactive); in the test with SNB-75, 18.6 µM (inactive); with UACC-62 it was 3.82 µM (inactive); with UO-31, 11.6 µM (inactive).

In the case of `O=C1C2C=CC(C2)C(c2ccc(O)cc2)N1O` (stereo not drawn), the GI50 with CCRF-CEM, in the test on HCT-116, with HL-60, with HOP-92, in the test on IGROV-1 and with KM-20L2 was > 100 µM (inactive) each time. In addition, the GI50 in the test on Malme-3M, with NCI-H23, with OVCAR-5, with OVCAR-8, in the test on RPMI-8226 and in the test with SK-MEL-28 was > 100 µM (inactive) each time. The GI50 with SNB-75, in the test with UACC-62 and with UO-31 was > 100 µM (inactive) throughout.

With `C[N+]1(CCC[N+]2(C)CC3C4C=CC(CC4)C3C2)CCOCC1` (stereo not drawn), the GI50 in the test on BT-549, in the test with CCRF-CEM, with HCT-116, with HL-60, with HOP-92 and in the test with IGROV-1 was > 100 µM (inactive) each time. Moreover, the GI50 in the test on MDA-MB-435, with Malme-3M, with NCI-H23, in the test with OVCAR-5, in the test on OVCAR-8 and in the test on RPMI-8226 was > 100 µM (inactive) in each case. The GI50 with SF-539, with SK-MEL-28, in the test on SNB-75, in the test on UACC-62 and in the test on UO-31 was > 100 µM (inactive) in each case.

In the case of `COC(=O)C(Cc1ccc([N+](=O)[O-])cc1)NC(=O)C(CC(=O)OC(C)(C)C)NC(=O)OC(C)(C)C` (stereo not drawn) (Boc-Asp(OtBu)-[Phe(4-NO2)]-OMe; configuration not given here), the GI50 in the test with BT-549, in the test with CCRF-CEM, in the test on HCT-116, in the test on HL-60, with HOP-92 and in the test on IGROV-1 was > 100 µM (inactive) each time. Further, the GI50 in the test with MDA-MB-435 is > 100 µM (inactive); with Malme-3M, > 100 µM (inactive); in the test with NCI-H23 it was > 100 µM (inactive); with OVCAR-5, > 100 µM (inactive); in the test with OVCAR-8, 38.1 µM (inactive); in the test with RPMI-8226, 40 µM (inactive). The GI50 in the test with SF-539 is > 100 µM (inactive); with SK-MEL-28, 25.5 µM (inactive); with SNB-75 it was 55.5 µM (inactive); with UACC-62 it was > 100 µM (inactive); in the test with UO-31, 14.3 µM (inactive).
